Results taken from patent US10941384B2, “Compositions and methods for promoting the generation of endocrine cells” (President and Fellows of Harvard College, priority 2013, dated 2021).

How the values were obtained:
[1] = test system: human c-peptide in serum of SCID-Beige mice; assay: Kidney capsule transplantation of treated cells, glucose-stimulated human c-peptide ELISA; format: in vivo; details: treated cells under kidney capsule of SCID-beige mice, 12 weeks, 30 mins after glucose
Source text: FIGS. 2A-2B show the characterization of cells derived by PKC inhibitor treatment. […] Cells were stained with insulin, c-peptide, glucagon, UCN3, PDX1 and NKX6-1 antibodies. All insulin-expressing cells express c-peptide. Few insulin-expressing cells express NKX6-1 or UCN3, markers of mature human β cells. Many insulin-expressing cells co-express another endocrine marker glucagon. Scale bars are 100 μm. […] Scheme beginning with cells that have been treated with hit chemicals, e.g., PKC inhibitors, comprises a population containing many NGN3-expressing cells. The HUES 8-derived pancreatic progenitor cells treated with DMSO were used as negative controls. […] 12 weeks later, the mouse sera collected at fasting condition and at 30 mins after glucose stimulation were analyzed using ELISA to measure human c-peptide expression. […]
Kidney capsule implantation and tissue preparation. […] The c-peptide levels in mouse sera were measured using the human c-peptide ELISA kit (Alpco Diagnostics or Millipore).
The inventors next investigated the developmental potential of cell populations enriched for NGN3^+ cells that were induced by PKC inhibition. […] More c-peptide (a byproduct of insulin biosynthesis)-expressing cells were detected in the derivatives of PKCβ inhibitor treated cells (12.5 5.8%) than the derivatives of control cells (DMSO-treated, 1.2 1.2%; FIG. 2b). […]

[2] = test system: Human NGN3 (HUES 8-pancreatic progenitor population); assay: High-content screen 1 and efficacy curve: NGN3+ cells by immunofluorescence (Cellomics); format: cell-based
Method: hESC culture and differentiation. Protocol 1. HUES 8 and H1 cells are routinely cultured on irradiated MEF feeder cells in KnockOut DMEM (Invitrogen) supplemented with 10% (v/v) KnockOut serum replacement (Invitrogen), 0.5% (v/v) human plasma fraction (Talecris Biotech), 2 mM L-glutamine (Invitrogen), 1.1 mM 2-mercaptoethanol (Invitrogen), 1 mM nonessential amino acids (Invitrogen), 1× penicillin/streptomycin (PS, Invitrogen) and 10 ng/ml bovine FGF (Invitrogen). Cells are passaged at the ratio of 1:6 every 5 d by using 0.05% trypsin (Invitrogen). To generate the HUES-pancreatic progenitor population, HUES cells were cultured on MEF feeder cells until 80-90% confluent, then treated with 25 ng/ml Wnt3a (R&D systems)+100 ng/ml activin A (R&D systems) in RPMI (Invitrogen) supplemented with 1×L-glutamine and 1×PS for 1 d, and then 100 ng/ml activin A in RPMI supplemented with 1×L-glutamine, 1×PS and 0.2% (v/v) fetal bovine serum (FBS, Invitrogen). The medium was changed 2 d later to 50 ng/ml/FGF7 (R&D systems) in RPMI supplemented with 1×L-glutamine, 1×PS and 2% (v/v) FBS, and maintained for an additional 2 d. Cells were then transferred to 100 ng/ml Noggin (R&D systems)+0.25 μM SANT-1 (Sigma)+2 μM retinoic acid (Sigma) in DMEM supplemented with 1×L-glutamine, 1×PS and 1×B27 (Invitrogen) and cultured for an 4 d, followed by treatment with 100 ng/ml Noggin (R&D systems)+1 μM ALK5 inhibitor (Enzo)+100 nM PDBu (Sigma) in DMEM supplemented with 1×L-glutamine, 1×PS and 1×B27 (Invitrogen) and cultured for an additional 4 d. All HUES-pancreatic progenitor cells were derived using the same protocol as described above. The percentage and number of PDX1^+ cells and NGN3^+ cells were analyzed with the Cellomics high content screening system (Thermo Scientific). PKCβ inhibitor was purchased from Calbiochem.
High-content screen 1. […]
Screen 1: Generation of efficacy curve. […] Six days later, the cells were stained with NGN3 antibody and the plates were analyzed with the Cellomics high content screening system (Thermo Scientific). […]

[3] = test system: NGN3 mRNA (HUES 8-derived pancreatic progenitor cells); assay: qRT-PCR of NGN3 expression in chemically-treated populations; format: cell-based, human; details: quantitative RT-PCR, HUES 8-derived cells
Source text: [drawing 11] was selected for follow up studies due to the high efficacy and low toxicity (FIG. 1C).

[4] = test system: pancreatic progenitors; details: previously reported, US2011/0070645; cited from earlier work

Row | Compound | human c-peptide levels in the serum, glucose injection versus fasting [1] | percentage of NGN3+ cells, fold higher than the DMSO-treated controls ([2]; HUES 8, at maximum) [fold] | EC50 ([2]; Homo sapiens, 144 h, HUES 8-pancreatic progenitor population, six days, FIG. 1D, read-out: EC50, total number of NGN3+ cells) [µM] | toxicity in screen 1 ([2]; reason for selection for follow up) | expression of NGN3 mRNA compared to DMSO controls [3] | generation of pancreatic progenitors [4]
1 | O=C1NC(=O)C(c2cn(CCCn3ccnc3)c3ccccc23)=C1Nc1ccccc1 [PKCβ inhibitor] | significantly higher upon glucose injection than during fasting | ~7 | 7.8 | low toxicity | higher expression of NGN3 mRNA | 
2 | (−)-Indolactam V |  |  |  |  |  | promotes the generation of pancreatic progenitors
